Experimental data reported in PubChem BioAssay (NCI).
Values joined by “and” are separate entries in the source; they are usually repeats but may differ in a detail not shown here. Equal values may be shown once.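 Briefly, cells in 96-well plates were exposed to five compound concentrations for 48 h, and endpoints were estimated by linear interpolation. GI50 = concentration required for 50% inhibition of growth. The concentration for full growth arrest is given as TGI.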

Key:
Test in all cases: inhibition of tumour cell growth, NCI panel, 48 h
SK-MEL-2 melanoma = system: SK-MEL-2 melanoma
NCI-H23 lung = system: NCI-H23 lung
U251 CNS = system: U251 CNS
NCI-H226 lung = system: NCI-H226 lung
OVCAR-5 ovarian = system: OVCAR-5 ovarian
IGROV1 ovarian = system: IGROV1 ovarian
SF-268 CNS = system: SF-268 CNS
NCI-H460 lung = system: NCI-H460 lung
TK-10 renal = system: TK-10 renal
OVCAR-3 ovarian = system: OVCAR-3 ovarian
HL-60(TB) leukemia = system: HL-60(TB) leukemia
SF-539 CNS = system: SF-539 CNS
UACC-62 melanoma = system: UACC-62 melanoma
NCI/ADR-RES ovarian = system: NCI/ADR-RES ovarian
MOLT-4 leukemia = system: MOLT-4 leukemia
M14 melanoma = system: M14 melanoma

SMILES	TGI (SK-MEL-2 melanoma) [µM]	TGI (NCI-H23 lung) [µM]	TGI (U251 CNS) [µM]	TGI (NCI-H226 lung) [µM]	TGI (OVCAR-5 ovarian) [µM]	TGI (IGROV1 ovarian) [µM]	TGI (SF-268 CNS) [µM]	TGI (NCI-H460 lung) [µM]	TGI (TK-10 renal) [µM]	TGI (OVCAR-3 ovarian) [µM]	TGI (HL-60(TB) leukemia) [µM]	TGI (SF-539 CNS) [µM]	TGI (UACC-62 melanoma)	TGI (NCI/ADR-RES ovarian) [µM]	TGI (MOLT-4 leukemia) [µM]	TGI (M14 melanoma) [µM]	GI50 (U251 CNS) [µM]	GI50 (UACC-62 melanoma) [µM]	GI50 (NCI/ADR-RES ovarian) [µM]	GI50 (MOLT-4 leukemia) [µM]
C=C1c2nc3ccccc3n2C=C(c2ccc(OC)cc2)N1c1ccc(OCCN2CCCCC2)cc1	> 51.6	> 61.4	> 91.3	> 96.7	> 100	> 100	> 100	14.8	41.8	> 100	20	81.2	> 100 µM	> 86.4	38.6	> 100	–	–	–	–
NS(=O)(=O)c1ccc(NC(=S)NC(=O)Nc2ccc(Cl)c(Cl)c2)cc1	34.4	33.7	37.8	43.8	27.9	39.2	32.3	> 69.8	81.5	42	33.5	39.7	28.7 µM	44.6	49.6	20.9	–	–	–	–
CC(NCc1c(O)ccc2c(-c3ccccc3)cc(=O)oc12)C(=O)O (stereo not drawn)	> 100	> 100	> 100	> 100	> 100	> 100	> 100	> 100	> 100	> 100	> 100	> 100	> 100 µM	> 100	> 100	> 100	–	–	–	–
COC(=NC(C)C)NC(C)C	> 100	> 100	> 100	> 100	> 100	> 100	> 100	> 100	> 100	–	> 100	> 100	> 100 µM	> 100	> 100	> 100	–	–	–	–
COC(=O)c1c(O)c(C#N)c2[nH]c3ccccc3n2c1=O	> 100	> 100	> 100	> 100	> 100	> 100	> 100	> 100	> 100	> 100	> 100	> 100	> 100 µM	> 100	> 100	> 100	–	–	–	–
CC(=O)c1ccc(Br)cc1NC1=CC(=O)c2ncccc2C1=O	16.9	13	19.7	15.5	33.8	12.4	21.7	–	31.4	4.09	3.61	6.96	6.13 µM	14.9	9.6	10.6	–	–	–	–
Clc1ccc(Cc2nc3ccccc3o2)cc1	> 100	> 100	> 100	> 100	> 100	> 100	> 100	> 100	> 100	> 100	> 100	> 100	> 100 µM	> 100	> 100	> 100	–	–	–	–
CCCN(CCC)C(=S)Sc1nc(C)nc(N2CCN(c3nc(C)nc(SC(=S)N(CCC)CCC)c3[N+](=O)[O-])CC2)c1[N+](=O)[O-]	30.9	36.8	16.7	> 62.2	45.4	41	98.5	> 100	41.9	–	> 38.3	> 80.6	60.3 µM	> 100	28	60.9	–	–	–	–
C=CCOC(=O)Cn1cnc2c(N)ncnc21	> 100	> 100	> 100	> 100	–	> 100	> 100	> 100	> 100	–	> 100	> 100	> 100 µM	> 100	> 100	> 100	–	–	–	–
OCC(O)COCn1cc(Cn2ncc3c(SCc4ccccc4)ncnc32)nn1 (stereo not drawn)	> 100	> 100	> 100	> 100	> 100	> 100	> 100	–	> 100	> 100	> 100	> 100	> 100 µM	> 100	> 100	> 100	–	–	–	–
C#CCOC(=O)C(N)CC(N)=O (stereo not drawn)	> 100	> 100	> 100	> 100	> 100	> 100	> 100	> 100	> 100	> 100	> 100	> 100	> 100 µM	> 100	> 100	> 100	–	–	–	–
N=C(N)SCc1ccc2c(c1)S(=O)(=O)c1ccccc1O2	34.5	43.4	38.2	48.9	47.3	31.5	93.1	53.1	34.7	40.5	> 100	55.7	34.9 µM	> 100	> 100	62.5	–	–	–	–
COC(=O)c1cc2ccc(O)c(O)c2cn1	34.3	32	31.2	36.8	35	33.2	30.8	37.4	34.6	30.8	> 100	33.5	6.16 µM and 30.9 µM	46.1	> 100	34.6	16.9	14.2	20.4	4.6
COC1=C(C(c2cc(OC)c(OC)c(OC)c2)c2cc3c(cc2OC)OCO3)C(=O)OC1 (stereo not drawn)	> 100	> 80	> 96.7	79.7	> 100	> 84.8	> 79.8	> 84.7	> 73.2	> 61	49.9	41.2	> 87 µM	26.2	> 100	63.6	–	–	–	–
NC(N)=N/N=C/c1c(-c2ccccc2[N+](=O)[O-])nc2sccn12	30.4	86.5	31.2	39.1	> 100	> 100	> 100	39.7	57	> 100	40.4	37.6	32.7 µM	> 100	46	31.2	–	–	–	–
